Experimental data as given in patent publication US20230084927A1, “GLUCOSE UPTAKE INHIBITORS AND USES THEREOF” (METABOMED LTD., priority 2019, published 2023).
Where two headings read alike, the source gives them in different places.

Tests used:
ACHN WT, RCC cells = assay: Cell viability in SDH-deficient/proficient isogenic pairs; assay type: cell-based
Procedure: (§1) The cells were grown in DMEM F12 supplemented with 1 mM Glutamine+3% FBS were treated with different concentrations of the indicated compounds. Cell viability was determined 72 hours later by CellTiter Glue reagent (Promega), the luminescence was measured with ClarioStar reader (BMG) and the EC50s were calculated by Prism. Murine SDHB-WT/KO, HRAS transformed isogenic pair (FIG. 12A); UOK269, Human Tumor-derived SDHB-deficient RCC in their WT counterpart with re-expression of SDHB (FIG. 12B); and ACHN, RCC cells, and their SDHB-KO (SDHB CRISPRed out) isogenic cells (FIG. 12C).

[1] = system: ACHN SDHB −/− (SDHB CRISPRed out); assay: as above; assay type: cell-based
Procedure: as §1

[2] = system: UOK269-WT (re-expression of SDHB); assay: as above; assay type: cell-based, Human
Procedure: as §1

UOK269 (SDHB-def.) RCC = assay: as above; assay type: cell-based, Human
Procedure: as §1

[3] = system: 2-DeoxyGlucose phosphorylation in murine SDH-WT cells; assay: 2 DG phosphorylation assay; assay type: cell-based; settings: Mus musculus, 0.25 h, 15 min, LC-MS
Procedure: IC50 of compound 145 and GluT1 inhibitor […] in a 2 DG phosphorylation assay was done using murine SDH-WT cells. The cells were treated for 15 min with the indicated compound at different concentrations in the presence of 2 DG. 2 DG phosphorylation was determined by LC-MS analysis and the inhibition IC50 was determined by Prism software.

[4] = system: KG1 (Acute Myelogenous Leukemia); assay: Toxicity assay with or without rotenone; assay type: cell-based; settings: 72 hours
Procedure: Toxicity assay: Cells were growing in 96 well plates in DMEM F12 with 17 mM glucose, 0.5 mM Sodium Pyruvate, 1 mM Glutamine and 3% FBS. The cells were treated with the indicated compounds (10 different concentrations) with or without 25 nM rotenone. Viability was determined after 72 hours of treatment using CellTiter Glo reagent (Promega). EC50 was calculated using Prism software.

[5] = target: T1, GLUT3 transporter (DLD1-GLUT1−/− cells) (Homo sapiens, UniProt P11169); assay: Glucose transporter selectivity assay; assay type: cell-based; settings: 10 mM glucose, 1 uM Rotenone, 15 min, read-out: IC50 (nM) DLD-Glut1−/− Glut3
T1 construct: DLD1-GLUT1−/− cells (Horizon discovery) for GLUT3 transporter; host or cells: DLD1-GLUT1−/−
T1 sequence (P11169 whole entry): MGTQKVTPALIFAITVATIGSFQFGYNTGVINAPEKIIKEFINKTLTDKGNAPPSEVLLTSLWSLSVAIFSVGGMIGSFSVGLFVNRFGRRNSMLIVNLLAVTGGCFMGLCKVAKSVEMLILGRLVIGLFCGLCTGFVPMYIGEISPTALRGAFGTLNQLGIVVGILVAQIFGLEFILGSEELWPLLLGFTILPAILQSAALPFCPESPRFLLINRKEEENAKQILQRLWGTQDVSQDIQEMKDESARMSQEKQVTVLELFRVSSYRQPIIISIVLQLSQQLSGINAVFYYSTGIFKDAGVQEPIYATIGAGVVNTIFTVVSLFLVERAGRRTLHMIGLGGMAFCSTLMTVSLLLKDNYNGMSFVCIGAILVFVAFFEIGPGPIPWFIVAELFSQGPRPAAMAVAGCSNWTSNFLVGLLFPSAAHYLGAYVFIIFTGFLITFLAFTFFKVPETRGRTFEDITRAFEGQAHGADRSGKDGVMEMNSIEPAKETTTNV
Procedure: (§2) Glucose transporter selectivity assays were done as described by Siebeneicher et al (ChemMedChem 2016, 11, 1-12) with the following adjustments; DLD1 cells for GLUT1 transporter, DLD1-GLUT1−/− cells (Horizon discovery) for GLUT3 transporter and DLD1-GLUT1−/− overexpressing hGLUT2 cells for GLUT2 transporter. The cells were plated overnight in 96-well plate at 80% confluency in starvation medium (DMEM without glucose, 0.5 mM glutamine, 1 mM pyruvate and 1% FBS). The cells were then pretreated for 30 min with 1 uM Rotenone and the inhibitors (compound 145) at different concentrations. The assay was initiated by adding glucose (5 mM for DLD1 cells, 10 mM for DLD1-Glut1−/−) or fructose (10 mM for DLD1-Glut1−/−(hGLUT2) cells) and the plates were incubated for 15 min at 37° C. At the end of the incubation Cell-titer Glo was added to the wells and luminescence was measured. The inhibition IC50 was calculated using Prism software.

[6] = target: T2, GLUT1 transporter (DLD1 cells) (Homo sapiens, UniProt P11166); assay: Glucose transporter selectivity assay; assay type: cell-based; settings: 5 mM glucose, 1 uM Rotenone, 15 min, read-out: IC50 (nM) DLD1-WT Glust1
T2 construct: DLD1 cells for GLUT1 transporter; endogenous in cells; host or cells: DLD1 (DLD1-WT)
T2 sequence (P11166 whole entry): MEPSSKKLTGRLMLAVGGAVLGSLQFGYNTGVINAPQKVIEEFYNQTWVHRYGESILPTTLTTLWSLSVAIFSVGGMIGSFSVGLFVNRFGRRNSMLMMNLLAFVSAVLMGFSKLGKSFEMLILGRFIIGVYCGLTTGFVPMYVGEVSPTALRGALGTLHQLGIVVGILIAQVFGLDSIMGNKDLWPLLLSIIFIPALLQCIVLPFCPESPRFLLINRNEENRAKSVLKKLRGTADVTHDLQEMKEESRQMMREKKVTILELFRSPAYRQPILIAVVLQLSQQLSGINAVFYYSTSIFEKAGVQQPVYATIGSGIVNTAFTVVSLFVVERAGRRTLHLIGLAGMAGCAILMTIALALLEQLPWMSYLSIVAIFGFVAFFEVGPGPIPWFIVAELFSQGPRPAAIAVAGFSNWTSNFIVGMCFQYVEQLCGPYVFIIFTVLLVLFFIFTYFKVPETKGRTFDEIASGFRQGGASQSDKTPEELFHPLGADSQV
Procedure: as §2

[7] = target: T3, GLUT2 transporter (DLD1-GLUT1−/− overexpressing hGLUT2 cells) (Homo sapiens, UniProt P11168); assay: Glucose transporter selectivity assay; assay type: cell-based; settings: 10 mM fructose, 1 uM Rotenone, 15 min, read-out: IC50 (nM) DLD-Glut1−/− (Glut2) Glut2
T3 construct: expressed in transfected cells; host or cells: DLD1-GLUT1−/−
T3 sequence (P11168 whole entry): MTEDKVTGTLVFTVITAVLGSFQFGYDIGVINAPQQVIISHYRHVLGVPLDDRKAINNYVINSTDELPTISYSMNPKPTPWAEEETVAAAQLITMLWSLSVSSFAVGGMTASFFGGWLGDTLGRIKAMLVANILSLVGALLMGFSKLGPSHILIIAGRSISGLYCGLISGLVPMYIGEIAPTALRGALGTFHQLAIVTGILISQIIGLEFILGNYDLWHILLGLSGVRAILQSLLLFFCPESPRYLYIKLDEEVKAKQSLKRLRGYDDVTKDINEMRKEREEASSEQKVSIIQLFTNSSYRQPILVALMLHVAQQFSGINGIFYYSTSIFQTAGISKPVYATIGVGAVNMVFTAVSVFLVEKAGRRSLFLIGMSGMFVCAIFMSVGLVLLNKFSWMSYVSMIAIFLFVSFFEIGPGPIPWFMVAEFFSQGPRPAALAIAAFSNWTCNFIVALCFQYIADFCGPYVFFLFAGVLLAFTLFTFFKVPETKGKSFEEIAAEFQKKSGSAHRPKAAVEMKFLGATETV
Procedure: as §2

[8] = system: SDH-KO-HRAS cells (SDHB-deficient); assay: Cellular / differential toxicity assay (CellTiter-Glo, 3 days); assay type: cell-based, murine; settings: for EC50: Mus musculus, 72 h
In short: (§3)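 Isogenic SDHB-deficient (HRAS-transformed SDH-KO) and SDH-WT cells grown in DMEM-F12 with 1 mM glutamine and 3% FBS, plated with compound (10-point dilution from 10 uM to 0.0065 uM or lower) for 3 days at 37 °C, 5% CO2. Viability by CellTiter-Glo luminescence; EC50 calculated.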

SDH-WT cells = assay: as above; assay type: cell-based, murine; settings: for EC50: Mus musculus, 72 h
In short: as §3

[9] = Homo sapiens, cancer cells, 72 hours
[10] = Homo sapiens, tumor-derived, 72 hours

For `CC1(C)Cc2nc3sc4c(NCCc5ccc6[nH]cnc6c5)ncnc4c3cc2CO1` [Compound 145], the “Ratio BAY-876/COMP 145” value (ACHN WT, RCC cells) was 1.7, the EC50 (ACHN WT, RCC cells; [9]) was 13800 nM and the “Ratio BAY-876/COMP 145” value [1] was 30. The EC50 [1, 9] was 8.4 nM, the “Ratio BAY-876/COMP 145” value [2] was 2.9 and the EC50 [2, 10] was 1830 nM. For the same molecule, the “Ratio BAY-876/COMP 145” value (UOK269 (SDHB-def.) RCC) was 8.8, the EC50 (UOK269 (SDHB-def.) RCC; [10]) was 1.7 nM and the IC50 [3] was 9.7 nM. The EC50 ([4]; KG1, with 25 nM rotenone, read-out: EC50 (nM) with Rotenone) was 16 nM, the EC50 ([4]; KG1, without rotenone, read-out: EC50) was 3200 nM and the IC50 [5] was 2 nM. For the same molecule, the IC50 [6] was 19 nM, the IC50 [7] was 14 nM and the “Ratio BAY-876/COMP 145” value ([8]; Murine SDH-KO) was 0.8. For the same molecule, the EC50 ([8]; Murine SDH-KO, transformed, 72 hours, Example 8, read-out: EC50) was 0.0012 µM, the EC50 ([8]; SDH-KO cells, 72 hours, Example 7, read-out: EC50 Tox) was 0.0018 µM and the EC50 ([8]; toxicity, SDH-KO cells, 3 days, CellTiter-Glo, read-out: EC50 (uM) SDH-KO-HTAS-C17) was < 1 µM. The “differential effect between SDH-WT and KO cells (EC50 Tox)” value ([8]; cell viability, Example 7) was “around 80 folds”, the “Ratio BAY-876/COMP 145” value (SDH-WT cells; Murine SDH-WT) was 0.4 and the EC50 (SDH-WT cells; Murine SDH-WT, transformed, 72 hours, Example 8, read-out: EC50) was 0.34 µM. The EC50 (SDH-WT cells; SDH-WT cells, 72 hours, Example 7, read-out: EC50 Tox) was 0.139 µM and the EC50 (SDH-WT cells; toxicity, SDH-WT cells, 3 days, CellTiter-Glo, read-out: EC50 (uM) SDH-WT) was < 1 µM.
